Reference: US5294627A, “Directed biosynthesis of biologically active compounds” (Merck & Co., Inc., priority 1992, dated 1994)

Target: T1, Squalene synthase (Rattus norvegicus, UniProt Q02769)
T1 construct: from tissue; host or cells: liver microsomes of Charles River CD rats fed 0.1% lovastatin for 4 days
T1 sequence (Q02769 1-416): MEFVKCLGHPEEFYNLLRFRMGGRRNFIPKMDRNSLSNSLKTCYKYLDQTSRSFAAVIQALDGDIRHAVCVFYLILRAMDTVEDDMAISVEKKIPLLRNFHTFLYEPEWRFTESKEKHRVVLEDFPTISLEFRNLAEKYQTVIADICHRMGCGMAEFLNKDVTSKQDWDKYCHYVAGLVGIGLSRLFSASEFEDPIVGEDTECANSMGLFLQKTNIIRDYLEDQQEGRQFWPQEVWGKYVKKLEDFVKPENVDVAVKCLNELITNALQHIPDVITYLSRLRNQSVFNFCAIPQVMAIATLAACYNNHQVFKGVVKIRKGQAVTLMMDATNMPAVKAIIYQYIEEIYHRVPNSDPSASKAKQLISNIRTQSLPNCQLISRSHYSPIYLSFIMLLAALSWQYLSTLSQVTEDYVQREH
Assay: Squalene synthase assay (rat liver microsomes, [3H]farnesyl-pyrophosphate)
Type: biochemical
Settings: 30° C., 20 minutes
Protocol: The intrinsic squalene synthase inhibitory activity of representative compounds of this invention was measured by the standard in vitro protocol described below:
CHARLES RIVER CD rats (120 to 150 g) were fed a diet containing 0.1% lovastatin for 4 days. The livers from these rats were homogenized in 5 volumes (mL/g) of ice cold 50 mM HEPES (4-(2-hydroxyethyl)-1-piperazine-ethanesulfonic acid), 5 mM EDTA (ethylenediaminetetraacetic acid) pH 7.5 with a Potter-Elvehjem type tissue grinder. The homogenate was centrifuged twice at 20,000× g for 15 min. at 4° C., discarding the pellet each time. The supernatant was then centrifuged at 100,000× g for 1 hr at 4° C. The resulting microsomal pellet was resuspended in a volume of the above homogenizing buffer equal to one-fifth the volume of the original homogenate. This microsomal preparation has a protein concentration of about 7 mg/mL. The microsomal suspensions were stored in aliquots at -70° C. Squalene synthase activity in these aliquots is stable for a least several months. […]
If a squalene epoxidase inhibitor (ingredient (7) above), such as Banyu's FW-439H, is not used, the assay mix is degassed under a vacuum and flushed with N2. […] Five mL of scintillation fluid was added to the heptane solution and radioactivity was determined by liquid scintillation counting.
Percent inhibition is calculated by the formula: [formula]

IC50: < 131 nM
SMILES: CC(=O)OC(CCCC12OC(C(=O)O)C(O)(C(=O)O)C(C(=O)O)(O1)[C@H](OC(=O)CC/C=C/C(C)CCCc1ccccc1)[C@H]2O)C(C)Cc1cccs1 (stereo partly shown)
